Assay results reported in PMC7180948, “New Insights into 4-Anilinoquinazolines as Inhibitors of Cardiac Troponin I–Interacting Kinase (TNNi3K)” (Molecules, 2020).

Tests used:
Test in all cases: biochemical
Parameters in all cases: KINOMEscan competition binding panel (Eurofins DiscoverX), single concentration, percent inhibition
Details in all cases: read-out: 15 at 1 µM % inhibition
[1] = target: T1, ARK5 (Homo sapiens, UniProt O60285)
T1 construct: gene NUAK1
Method in brief: (§1)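 Compounds were submitted at 1 µM to a KINOMEscan assay covering more than 400 human kinases. The screen served to define the selectivity profile.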

[2] = target: T2, YANK3 (Homo sapiens, UniProt Q86UX6)
T2 construct: gene STK32C
Method in brief: as §1

[3] = target: T3, MEK1 (Homo sapiens, UniProt Q02750)
T3 construct: gene MAP2K1
Method in brief: as §1

[4] = target: T4, TRKB (Homo sapiens, UniProt Q16620)
T4 construct: gene NTRK2
Method in brief: as §1

[5] = target: NEK4 (Homo sapiens, UniProt P51957)
Method in brief: as §1

[6] = target: IRAK1 (Homo sapiens, UniProt P51617)
Method in brief: as §1

[7] = target: T5, PKAC-alpha (Homo sapiens, UniProt P17612)
T5 construct: gene PRKACA
Method in brief: as §1

[8] = target: CAMK2G (Homo sapiens, UniProt Q13555)
Method in brief: as §1

[9] = target: T6, NDR2 (Homo sapiens, UniProt Q9Y2H1)
T6 construct: gene STK38L
T6 sequence (Q9Y2H1 whole entry): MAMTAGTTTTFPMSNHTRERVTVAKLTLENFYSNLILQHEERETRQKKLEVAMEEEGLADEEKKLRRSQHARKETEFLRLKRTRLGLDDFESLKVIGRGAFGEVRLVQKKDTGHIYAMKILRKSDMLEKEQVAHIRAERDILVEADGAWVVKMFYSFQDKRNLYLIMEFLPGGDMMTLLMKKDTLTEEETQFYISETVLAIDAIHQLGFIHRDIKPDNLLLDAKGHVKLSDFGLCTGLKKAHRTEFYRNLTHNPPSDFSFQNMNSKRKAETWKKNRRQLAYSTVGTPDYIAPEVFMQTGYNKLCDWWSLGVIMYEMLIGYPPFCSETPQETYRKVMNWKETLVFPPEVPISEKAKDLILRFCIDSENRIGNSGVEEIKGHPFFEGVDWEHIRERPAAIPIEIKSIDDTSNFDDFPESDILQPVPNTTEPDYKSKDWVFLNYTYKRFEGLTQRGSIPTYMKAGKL
Method in brief: as §1

[10] = target: EGFR(T790M) (Homo sapiens, UniProt P00533, T790M)
Method in brief: as §1

[11] = target: T7, YANK2 (Homo sapiens, UniProt Q9NY57)
T7 construct: gene STK32B
T7 sequence (Q9NY57 whole entry): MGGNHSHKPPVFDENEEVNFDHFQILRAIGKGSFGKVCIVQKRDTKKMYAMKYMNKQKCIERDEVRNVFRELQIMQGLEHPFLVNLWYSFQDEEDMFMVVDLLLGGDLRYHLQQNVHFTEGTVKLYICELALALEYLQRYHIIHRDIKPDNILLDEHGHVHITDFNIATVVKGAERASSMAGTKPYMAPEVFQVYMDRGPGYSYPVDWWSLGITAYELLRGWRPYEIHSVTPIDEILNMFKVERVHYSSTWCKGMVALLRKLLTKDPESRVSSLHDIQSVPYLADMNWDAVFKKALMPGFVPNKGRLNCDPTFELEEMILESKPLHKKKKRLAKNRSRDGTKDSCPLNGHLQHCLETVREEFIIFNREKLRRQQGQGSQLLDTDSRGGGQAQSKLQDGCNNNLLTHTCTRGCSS
Method in brief: as §1

[12] = target: KIT(L576P) (Homo sapiens, UniProt P10721, L576P)
Chain of KIT(L576P) (P10721 whole entry L576P): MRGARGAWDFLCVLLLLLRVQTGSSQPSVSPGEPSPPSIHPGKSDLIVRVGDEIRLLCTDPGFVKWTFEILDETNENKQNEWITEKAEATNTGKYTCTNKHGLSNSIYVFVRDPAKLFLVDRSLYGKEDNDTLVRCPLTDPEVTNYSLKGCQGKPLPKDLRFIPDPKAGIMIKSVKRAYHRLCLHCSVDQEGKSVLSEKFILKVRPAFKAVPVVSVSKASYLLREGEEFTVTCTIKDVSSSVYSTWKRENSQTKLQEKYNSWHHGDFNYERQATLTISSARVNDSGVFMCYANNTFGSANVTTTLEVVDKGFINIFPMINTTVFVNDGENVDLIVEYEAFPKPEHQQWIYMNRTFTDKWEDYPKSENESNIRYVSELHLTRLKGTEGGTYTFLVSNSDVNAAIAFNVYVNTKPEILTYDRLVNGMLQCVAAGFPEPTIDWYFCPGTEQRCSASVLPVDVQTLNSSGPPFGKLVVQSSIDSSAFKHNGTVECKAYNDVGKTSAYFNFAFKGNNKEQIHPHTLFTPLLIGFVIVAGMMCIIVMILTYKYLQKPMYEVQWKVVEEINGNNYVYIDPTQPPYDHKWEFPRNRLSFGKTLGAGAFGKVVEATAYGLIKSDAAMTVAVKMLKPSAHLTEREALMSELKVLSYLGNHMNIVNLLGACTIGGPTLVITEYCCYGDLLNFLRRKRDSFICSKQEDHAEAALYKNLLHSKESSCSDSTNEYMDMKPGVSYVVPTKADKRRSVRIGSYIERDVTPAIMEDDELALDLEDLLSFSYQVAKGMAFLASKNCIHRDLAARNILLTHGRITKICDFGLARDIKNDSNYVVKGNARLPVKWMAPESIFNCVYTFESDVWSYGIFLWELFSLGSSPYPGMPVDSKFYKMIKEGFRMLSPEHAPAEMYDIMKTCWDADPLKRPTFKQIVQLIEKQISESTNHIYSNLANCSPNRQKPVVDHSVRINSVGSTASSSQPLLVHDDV
Method in brief: as §1

[13] = target: PIP5K1C (Homo sapiens, UniProt O60331)
Method in brief: as §1

[14] = target: T8, JNK3 (Homo sapiens, UniProt P53779)
T8 construct: gene MAPK10
T8 sequence (P53779 whole entry): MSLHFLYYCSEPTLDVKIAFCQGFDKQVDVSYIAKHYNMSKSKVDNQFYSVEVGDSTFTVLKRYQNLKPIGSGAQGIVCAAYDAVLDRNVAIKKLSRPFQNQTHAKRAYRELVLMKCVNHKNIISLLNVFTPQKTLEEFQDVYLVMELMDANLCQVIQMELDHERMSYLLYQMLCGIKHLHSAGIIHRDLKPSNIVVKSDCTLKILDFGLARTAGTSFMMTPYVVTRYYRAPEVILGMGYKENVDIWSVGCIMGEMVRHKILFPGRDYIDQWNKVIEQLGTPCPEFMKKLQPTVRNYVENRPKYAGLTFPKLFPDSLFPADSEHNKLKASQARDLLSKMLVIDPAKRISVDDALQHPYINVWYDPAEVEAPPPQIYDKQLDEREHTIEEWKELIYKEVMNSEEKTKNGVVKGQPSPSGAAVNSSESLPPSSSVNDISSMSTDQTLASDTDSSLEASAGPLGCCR
Method in brief: as §1

[15] = target: KIT(V559D,V654A) (Homo sapiens, UniProt P10721, V559D/V654A)
Chain of KIT(V559D,V654A) (P10721 whole entry V559D/V654A): as the sequence (P10721 whole entry L576P) above, with V559D, P576L, V654A counted along it
Method in brief: as §1

[16] = target: T9, FAK (Homo sapiens, UniProt Q05397)
T9 construct: gene PTK2
Method in brief: as §1

[17] = target: T10, DMPK2 (Homo sapiens, UniProt Q6DT37)
T10 construct: gene CDC42BPG
Method in brief: as §1

[18] = target: CDK4 (Homo sapiens, UniProt P11802)
Method in brief: as §1

[19] = target: T11, p38-delta (Homo sapiens, UniProt O15264)
T11 construct: gene MAPK13
T11 sequence (O15264 whole entry): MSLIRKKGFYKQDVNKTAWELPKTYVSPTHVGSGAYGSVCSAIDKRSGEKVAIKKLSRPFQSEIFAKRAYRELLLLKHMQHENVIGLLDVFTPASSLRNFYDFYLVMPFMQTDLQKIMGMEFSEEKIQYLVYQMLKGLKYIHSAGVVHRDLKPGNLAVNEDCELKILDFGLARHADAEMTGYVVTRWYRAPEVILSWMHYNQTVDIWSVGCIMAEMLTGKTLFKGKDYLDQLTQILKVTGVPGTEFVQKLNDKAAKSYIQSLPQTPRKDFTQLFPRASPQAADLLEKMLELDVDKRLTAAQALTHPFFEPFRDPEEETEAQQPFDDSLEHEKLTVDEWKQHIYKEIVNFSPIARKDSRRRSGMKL
Method in brief: as §1

[20] = target: T12, ABL1(E255K)-phosphorylated (Homo sapiens, UniProt P00519, E255K)
T12 construct: phosphorylated
Method in brief: as §1

[21] = target: HIPK1 (Homo sapiens, UniProt Q86Z02)
Method in brief: as §1

[22] = target: LATS1 (Homo sapiens, UniProt O95835)
Chain of LATS1 (O95835 whole entry): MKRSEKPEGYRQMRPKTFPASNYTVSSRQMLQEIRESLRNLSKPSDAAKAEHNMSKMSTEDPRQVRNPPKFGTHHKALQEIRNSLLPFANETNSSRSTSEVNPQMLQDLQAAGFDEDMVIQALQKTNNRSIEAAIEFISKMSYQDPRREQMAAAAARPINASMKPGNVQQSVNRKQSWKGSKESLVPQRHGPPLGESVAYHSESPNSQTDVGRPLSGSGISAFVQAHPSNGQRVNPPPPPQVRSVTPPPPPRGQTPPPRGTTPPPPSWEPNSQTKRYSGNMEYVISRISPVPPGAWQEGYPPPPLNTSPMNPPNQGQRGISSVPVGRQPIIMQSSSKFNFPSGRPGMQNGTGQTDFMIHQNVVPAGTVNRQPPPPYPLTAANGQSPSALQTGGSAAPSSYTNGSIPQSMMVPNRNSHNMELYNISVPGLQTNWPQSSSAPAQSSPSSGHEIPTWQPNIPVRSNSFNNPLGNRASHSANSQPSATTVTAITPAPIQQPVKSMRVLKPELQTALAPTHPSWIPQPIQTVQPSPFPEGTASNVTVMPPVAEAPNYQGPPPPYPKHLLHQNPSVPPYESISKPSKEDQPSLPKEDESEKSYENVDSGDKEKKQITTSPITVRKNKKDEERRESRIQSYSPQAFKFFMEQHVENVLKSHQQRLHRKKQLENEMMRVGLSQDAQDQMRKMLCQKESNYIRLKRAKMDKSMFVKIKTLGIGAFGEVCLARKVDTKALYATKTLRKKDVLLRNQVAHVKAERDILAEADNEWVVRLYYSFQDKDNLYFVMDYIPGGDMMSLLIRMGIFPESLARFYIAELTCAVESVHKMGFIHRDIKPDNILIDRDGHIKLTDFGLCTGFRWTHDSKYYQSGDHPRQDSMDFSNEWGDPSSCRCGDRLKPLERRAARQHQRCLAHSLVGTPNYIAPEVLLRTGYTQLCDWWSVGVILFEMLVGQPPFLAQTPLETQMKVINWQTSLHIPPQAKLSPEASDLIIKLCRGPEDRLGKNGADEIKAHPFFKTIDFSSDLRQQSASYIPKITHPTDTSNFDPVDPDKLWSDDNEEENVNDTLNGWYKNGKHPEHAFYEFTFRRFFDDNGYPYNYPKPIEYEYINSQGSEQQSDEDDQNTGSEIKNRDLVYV
Method in brief: as §1

[23] = target: EGFR(G719S) (Homo sapiens, UniProt P00533, G719S)
Chain of EGFR(G719S) (P00533 whole entry G719S): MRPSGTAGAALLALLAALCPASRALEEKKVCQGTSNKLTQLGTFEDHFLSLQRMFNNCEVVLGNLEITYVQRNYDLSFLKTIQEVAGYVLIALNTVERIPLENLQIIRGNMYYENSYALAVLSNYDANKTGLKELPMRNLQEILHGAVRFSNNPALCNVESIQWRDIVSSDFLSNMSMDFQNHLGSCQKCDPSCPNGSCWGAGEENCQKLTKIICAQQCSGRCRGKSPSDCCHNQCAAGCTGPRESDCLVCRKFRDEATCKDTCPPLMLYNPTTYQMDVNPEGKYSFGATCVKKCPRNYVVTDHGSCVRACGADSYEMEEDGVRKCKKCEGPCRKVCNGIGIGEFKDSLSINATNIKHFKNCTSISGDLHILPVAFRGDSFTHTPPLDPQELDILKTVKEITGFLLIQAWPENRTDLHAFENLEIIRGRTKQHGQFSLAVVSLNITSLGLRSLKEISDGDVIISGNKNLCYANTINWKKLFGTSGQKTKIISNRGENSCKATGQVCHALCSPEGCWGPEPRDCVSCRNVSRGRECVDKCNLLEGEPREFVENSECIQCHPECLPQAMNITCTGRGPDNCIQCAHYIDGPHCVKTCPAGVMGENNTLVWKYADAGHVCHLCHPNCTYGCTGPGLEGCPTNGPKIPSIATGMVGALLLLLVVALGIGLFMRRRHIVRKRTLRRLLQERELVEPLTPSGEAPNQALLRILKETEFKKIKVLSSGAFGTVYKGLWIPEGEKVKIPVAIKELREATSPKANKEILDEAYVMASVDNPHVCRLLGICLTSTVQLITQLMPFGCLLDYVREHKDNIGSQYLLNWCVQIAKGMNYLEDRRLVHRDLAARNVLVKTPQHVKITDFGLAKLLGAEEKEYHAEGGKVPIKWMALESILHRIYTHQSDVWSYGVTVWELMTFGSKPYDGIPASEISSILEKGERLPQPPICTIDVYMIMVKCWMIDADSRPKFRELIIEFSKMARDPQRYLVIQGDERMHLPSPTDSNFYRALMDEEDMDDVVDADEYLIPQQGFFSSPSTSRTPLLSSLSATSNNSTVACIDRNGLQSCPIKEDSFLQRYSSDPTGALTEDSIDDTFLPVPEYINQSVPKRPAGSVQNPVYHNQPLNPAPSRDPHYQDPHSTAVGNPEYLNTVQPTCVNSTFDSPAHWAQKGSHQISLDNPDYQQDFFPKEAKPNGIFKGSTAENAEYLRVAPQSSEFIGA
Method in brief: as §1

[24] = target: FLT3-autoinhibited (Homo sapiens, UniProt P36888)
Method in brief: as §1

inhibition at 1 µM [1]: 0% | inhibition at 1 µM [2]: 0% | inhibition at 1 µM [3]: 18% | inhibition at 1 µM [4]: 22% | inhibition at 1 µM [5]: 13% | inhibition at 1 µM [6]: 11% | inhibition at 1 µM [7]: 0% | inhibition at 1 µM [8]: 0% | inhibition at 1 µM [9]: 6% | inhibition at 1 µM [10]: 25% | inhibition at 1 µM [11]: 0% | inhibition at 1 µM [12]: 0% | inhibition at 1 µM [13]: 18% | inhibition at 1 µM [14]: 0% | inhibition at 1 µM [15]: 0% | inhibition at 1 µM [16]: 0% | inhibition at 1 µM [17]: 5% | inhibition at 1 µM [18]: 21% | inhibition at 1 µM [19]: 17% | inhibition at 1 µM [20]: 4% | inhibition at 1 µM [21]: 7% | inhibition at 1 µM [22]: 14% | inhibition at 1 µM [23]: 0% | inhibition at 1 µM [24]: 0%
Compound: CNS(=O)(=O)c1ccc(N(C)C)c(Nc2nc(C)nc3cc(OC)c(OC)cc23)c1 [compound 15, 3-((6,7-dimethoxy-2-methylquinazolin-4-yl)amino)-4-(dimethylamino)-N-methylbenzenesulfonamide]
